Test results: paper PMC7142304, “Oxadiazole-Containing Macrocyclic Peptides Potentiate Azole Activity against Pathogenic Candida Species” (mSphere, 2020)
Values after ≈ are worked out from the molar mass of the structure shown.

Columns and labels:
[1] = tested on: ABC transporters Cdr1 and Cdr2; experiment: Rhodamine-6G intracellular accumulation (efflux inhibition); format: cell-based; settings: 30°C
Description: (A) The effect of JRF1199-1 and JRF1199-2 on filamentation of C. albicans (SN95, CaLC239) was monitored after incubation in YPD medium at 30°C or 39°C for 4 h with shaking. Images were taken by differential interference contrast microscopy. Representative fields from micrographs obtained at the same magnification for all images are presented. (B) C. albicans (Caf2-1, CaLC2742) was grown in YPD medium at 30°C for 3 h with or without 125 μM macrocycle or 10 μg/ml of beauvericin. A concentration of 1 μg/ml of rhodamine-6G was added to the cultures for another 30 min at 30°C. Cells were washed twice with phosphate-buffered saline (PBS), followed by fluorescence microscopy to monitor rhodamine-6G accumulation in cells. (C) The fluorescence of untreated cells or of cells treated with beauvericin or JRF1198-2 was quantitated by flow cytometry. Assays were performed using 250 μl of culture per well, and fluorescence was measured using the FL2 (phycoerythrin) channel in a CytoFLEX flow cytometer (Beckman Coulter Inc.) with at least 20,000 events acquired per sample. Events were gated to capture at least 90% of the entire population analyzed, discarding clumps/cellular debris. […] Growth was measured by absorbance at 600 nm after 24 h (C. parapsilosis [CpLC573], C. auris [Ci 6684, CauLC5083], and C. glabrata [BG2, CgLC1002]) or after 48 h (C. tropicalis [CtLC573]) at 30°C. […]

[2] = tested on: C. glabrata, C. auris, C. tropicalis, and C. parapsilosis; experiment: Fluconazole MIC against azole-resistant non-albicans Candida panel; format: cell-based, Candida species; settings: in the absence of macrocyclic peptides; range over the four strains; YPD, 30°C

| MIC [2] [µg/mL] | Compound | Mean Fluorescence (rhodamine-6G accumulation) ([1]; flow cytometry, FL2 channel, 3 h with 125 μM macrocycle or 10 μg/ml beauvericin, then 1 μg/ml rhodamine-6G for 30 min, at least 20,000 events) | Effect on rhodamine-6G accumulation ([1]; microscopy and flow cytometry, 125 μM macrocycle or 10 μg/ml beauvericin, YPD) |
| --- | --- | --- | --- |
| – | beauvericin | 275895.3 | enhanced rhodamine-6G accumulation |
| 32 to 256 (≈ 104 to 836 µM) | OC(Cn1cncn1)(Cn1cncn1)c1ccc(F)cc1F [fluconazole] | – | – |
